Assay results from US8367873B2, “Phenyl-substituted bicyclooctane-1,3-dione derivatives” (Bayer Cropscience AG, priority 2008, dated 2013).

Key:
Format in all cases: in vivo
[1] = tested on: monocotylidonous and dicotylidonous weed and crop plants; assay: Herbicidal pre-emergence action (other test plants); details: pre-emergence method, 80 g/ha, greenhouse, visual assessment vs untreated controls
Method in brief: (§1)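 Visual percent effect relative to untreated controls (0% = like control, 100% = dead) assessed three weeks after treatment in the greenhouse. Compounds, as wettable powders in water (600 l/ha, 0.2% wetting agent), were sprayed at different amounts onto covering soil over seeds sown in sandy loam.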

[2] = tested on: monocotylidonous and dicotylidonous weed and crop plants; assay: Herbicidal post-emergence action (other test plants); details: post-emergence method; for herbicidal effect against AVEFA (Avena fatua): 80 g/ha
Method in brief: (§2)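 Post-emergence spray test: wettable-powder formulations are applied at different amounts to one-leaf-stage plants in 600 l/ha water containing 0.2% wetting agent. After roughly three weeks in the greenhouse, percent effect is rated visually relative to untreated controls.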

Alopecurus myosuroides [3] = assay: Herbicidal pre-emergence action; details: pre-emergence method, 80 g/ha, greenhouse, visual assessment vs untreated controls
Method in brief: as §1

Setaria viridis [4] = assay: Herbicidal pre-emergence action; details: pre-emergence method, 80 g/ha, greenhouse, visual assessment vs untreated controls
Method in brief: as §1

Echinocloa crus-galli [5] = assay: Herbicidal pre-emergence action; details: pre-emergence method, 80 g/ha, greenhouse, visual assessment vs untreated controls
Method in brief: as §1

Lolium multiflorum [6] = assay: Herbicidal pre-emergence action; details: pre-emergence method, 80 g/ha, greenhouse, visual assessment vs untreated controls
Method in brief: as §1

Alopecurus myosuroides [7] = assay: Herbicidal post-emergence action; details: post-emergence method; for herbicidal effect against ALOMY (Alopecurus myosuroides): 80 g/ha
Method in brief: as §2

Setaria viridis [8] = assay: Herbicidal post-emergence action; details: post-emergence method; for herbicidal effect against SETVI (Setaria viridis): 80 g/ha
Method in brief: as §2

Echinocloa crus-galli [9] = assay: Herbicidal post-emergence action; details: post-emergence method; for herbicidal effect against ECHCG (Echinochloa crus-galli): 80 g/ha
Method in brief: as §2

Lolium multiflorum [10] = assay: Herbicidal post-emergence action; details: post-emergence method; for herbicidal effect against LOLMU (Lolium multiflorum): 80 g/ha
Method in brief: as §2

Row | Structure (SMILES) | herbicidal effect AVEFA [1] [%] | pest or weed control at 80 g/ha ([2]; 504 h, Avena fatua, read-out: herbicidal effect against AVEFA (Avena fatua)) [%] | herbicidal effect ALOMY (Alopecurus myosuroides [3]) [%] | herbicidal effect SETVI (Setaria viridis [4]) [%] | herbicidal effect ECHCG (Echinocloa crus-galli [5]) [%] | herbicidal effect LOLMU (Lolium multiflorum [6]) [%] | pest or weed control at 80 g/ha (Alopecurus myosuroides [7]; Alopecurus myosuroides, 504 h, read-out: herbicidal effect against ALOMY (Alopecurus myosuroides)) [%] | pest or weed control at 80 g/ha (Setaria viridis [8]; Setaria viridis, 504 h, read-out: herbicidal effect against SETVI (Setaria viridis)) [%] | pest or weed control at 80 g/ha (Echinocloa crus-galli [9]; Echinochloa crus-galli, 504 h, read-out: herbicidal effect against ECHCG (Echinochloa crus-galli)) [%] | pest or weed control at 80 g/ha (Lolium multiflorum [10]; Lolium multiflorum, 504 h, read-out: herbicidal effect against LOLMU (Lolium multiflorum)) [%] | herbicidal effect against AVEFA (Avena fatua) [2] [%] | herbicidal effect against ALOMY (Alopecurus myosuroides) (Alopecurus myosuroides [7]) [%] | herbicidal effect against SETVI (Setaria viridis) (Setaria viridis [8]) [%] | herbicidal effect against ECHCG (Echinochloa crus-galli) (Echinocloa crus-galli [9]) [%] | herbicidal effect against LOLMU (Lolium multiflorum) (Lolium multiflorum [10]) [%]
1 | CCc1cc(C)cc(CC)c1C1=C(OC(C)=O)[C@H]2C[C@@]3(COC(C)(C)O3)C[C@H]2C1=O [I-b-1] | 40 | 60 | 90 | 70 | 40 | 100 | 100 | 40 | 100 | 100 |  |  |  |  | 
2 | CCC(=O)OC1=C(c2c(CC)cc(C)cc2CC)C(=O)C2CC3(COC(C)(C)O3)CC12 (centres unmarked) [I-b-2] | 50 |  | 90 | 40 | 30 | 100 |  |  |  |  | 60 | 100 | 80 | 90 | 100
3 | CCc1cc(C)cc(CC)c1C1=C(OC(=O)C(C)C)C2CC3(COC(C)(C)O3)CC2C1=O (centres unmarked) [I-b-3] | 60 |  | 90 | 50 | 0 | 100 |  |  |  |  | 40 | 100 | 20 | 100 | 100
4 | CCc1cc(C)cc(CC)c1C1=C(OC(=O)COC)C2CC3(COC(C)(C)O3)CC2C1=O (centres unmarked) [I-b-4] | 50 |  | 90 | 60 | 70 | 100 |  |  |  |  | 90 | 100 | 60 | 100 | 100
5 | CCC(=O)OC1=C(c2c(CC)cc(C)cc2CC)C(=O)C2CC3(COC(C)(C)O3)CC12 (centres unmarked) [I-b-6] | 80 |  | 100 | 60 | 30 | 100 |  |  |  |  | 100 | 90 | 90 | 100 | 100
6 | CCc1cc(C)cc(CC)c1C1=C(OC(=O)C(C)C)C2CC3(COC(C)(C)O3)CC2C1=O (centres unmarked) [I-b-7] | 80 |  | 100 | 70 | 60 | 100 |  |  |  |  | 100 | 90 | 90 | 100 | 100
7 | CCc1cc(C)cc(CC)c1C1=C(OC(=O)C(C)(C)C)C2CC3(COC(C)(C)O3)CC2C1=O (centres unmarked) [I-b-8] | 80 |  | 100 | 90 | 90 | 100 |  |  |  |  | 70 | 90 | 60 | 80 | 100
8 | CCc1cc(C)cc(CC)c1C1=C(OC(=O)C(C)C)C2CC3(CC2C1=O)OCC=CCO3 (centres unmarked) [I-b-12] | 70 |  | 100 | 90 | 100 | 100 |  |  |  |  | 100 | 90 | 100 | 100 | 100
9 | CCc1cc(C)cc(CC)c1C1=C(OC(=O)C(C)C)C2CC3(CC2C1=O)OCC(C)CO3 (centres unmarked) [I-b-14] | 70 |  | 100 | 100 | 100 | 100 |  |  |  |  | 100 | 100 | 100 | 100 | 100
10 | CCOC1COC2(CC3C(=O)C(c4c(CC)cc(C)cc4CC)=C(OC(=O)C(C)C)C3C2)OC1 (centres unmarked) [I-b-16] | 80 |  | 100 | 100 | 100 | 100 |  |  |  |  | 90 | 100 | 100 | 100 | 100
11 | CCc1cc(C)cc(CC)c1C1=C(OC(=O)C(C)C)C2CC3(CC2C1=O)OCC(OCc1ccccc1)CO3 (centres unmarked) [I-b-17] | 80 |  | 90 | 90 | 100 | 100 |  |  |  |  | 90 | 90 | 90 | 100 | 100
12 | CCc1cc(C)cc(CC)c1C1=C(OC(C)=O)C2CC3(CC2C1=O)OCCO3 (centres unmarked) [I-b-18] | 70 |  | 100 | 70 | 80 | 100 |  |  |  |  | 100 | 100 | 100 | 100 | 100
13 | CCc1cc(C)cc(CC)c1C1=C(OC(=O)C(C)(C)C)C2CC3(CC2C1=O)OCCCO3 (centres unmarked) [I-b-22] | 70 |  | 100 | 80 | 100 | 100 |  |  |  |  | 100 | 100 | 100 | 100 | 100
14 | CCc1cc(C)cc(CC)c1C1=C(OC(C)=O)C2CC3(CC2C1=O)OCCCO3 (centres unmarked) [I-b-23] | 70 |  | 90 | 50 | 100 | 100 |  |  |  |  | 100 | 100 | 100 | 100 | 100
15 | CCC(=O)OC1=C(c2c(CC)cc(C)cc2CC)C(=O)C2CC3(CC12)OCCCO3 (centres unmarked) [I-b-24] | 70 |  | 70 | 40 | 100 | 100 |  |  |  |  | 100 | 100 | 100 | 100 | 100
16 | CCc1cc(C)cc(CC)c1C1=C(OC(=O)C(C)(C)CCl)C2CC3(CC2C1=O)OCCCO3 (centres unmarked) [I-b-25] | 70 |  | 90 | 60 | 100 | 100 |  |  |  |  | 100 | 100 | 100 | 100 | 100
17 | CCc1cc(C)cc(CC)c1C1=C(OC(=O)COC)C2CC3(CC2C1=O)OCCCO3 (centres unmarked) [I-b-28] | 50 |  | 90 | 70 | 100 | 100 |  |  |  |  | 100 | 100 | 100 | 100 | 100
